In US20220235051A1, “DI-FLUORO AZEPANES AS HBV CAPSID ASSEMBLY MODULATORS” (priority 2019, published 2022):
Read-outs that look alike come from different tables or passages of the source.

Test system: HBV
Assay: HBV replication inhibition assay (BDNA assay) in HepG2.2.15 cells
Type: cell-based
Details: HepG2.2.15 cells, BDNA assay, encapsidated HBV DNA in supernatant at day 6, read-out: HepG2.2.15 EC50 HBV DNA
Protocol: HBV replication inhibition by the disclosed compounds were determined in cells infected or transfected with HBV or cells with stably integrated HBV, such as HepG2.2.15 cells (Sells et al. 1987). In this example, HepG2.2.15 cells were maintained in cell culture medium containing 10% fetal bovine serum (FBS), Geneticin, L-glutamine, penicillin and streptomycin. HepG2.2.15 cells were seeded in 96-well plates at a density of 40,000 cells/well and were treated with serially diluted compounds at a final DMSO concentration of 0.5% either alone or in combination by adding drugs in a checker box format. Cells were incubated with compounds for three days, after which medium was removed and fresh medium containing compounds was added to cells and incubated for another three days. At day 6, supernatant was removed and treated with DNase at 37° C. for 60 minutes, followed by enzyme inactivation at 75° C. for 15 minutes. Encapsidated HBV DNA was released from the virions and covalently linked HBV polymerase by incubating in lysis buffer (Affymetrix QS0010) containing 2.5 μg proteinase K at 50° C. for 40 minutes. HBV DNA was denatured by addition of 0.2 M NaOH and detected using a branched DNA (BDNA) QuantiGene assay kit according to manufacturer recommendation (Affymetrix). HBV DNA levels were also quantified using qPCR, based on amplification of encapsidated HBV DNA extraction with QuickExtraction Solution (Epicentre Biotechnologies) and amplification of HBV DNA using HBV specific PCR probes that can hybridize to HBV DNA and a fluorescently labeled probe for quantitation. In addition, cell viability of HepG2.2.15 cells incubated with test compounds alone or in combination was determined by using CellTitre-Glo reagent according to the manufacturer protocol (Promega). The mean background signal from wells containing only culture medium was subtracted from all other samples, and percent inhibition at each compound concentration was calculated by normalizing to signals from HepG2.2.15 cells treated with 0.5% DMSO using equation E1.
% inhibition=(DMSOave−Xi)/DMSOave×100% E1
where DMSOave is the mean signal calculated from the wells that were treated with DMSO control (0% inhibition control) and Xi is the signal measured from the individual wells. EC50 values, effective concentrations that achieved 50% inhibitory effect, were determined by non-linear fitting using Graphpad Prism software (San Diego, Calif.) and equation E2.
Y=Ymin+(Ymax−Ymin)/(1+10(Log EC50−X)×HillSlope) E2
where Y represents percent inhibition values and X represents the logarithm of compound concentrations.
Selected disclosed compounds were assayed in the HBV replication assay (BDNA assay), as described above, and a representative group of these active compounds is shown in Table 3.

[1] = Hepatitis B virus, HepG2.2.15, 144 h

SMILES | EC50 [1] | EC50
C[C@@H]1Cc2nn3c(c2CN1C(=O)Nc1ccnc(Br)c1F)C(F)(F)CC(O)(CF)CC3 (single isomer, unassigned) [Example 127, (3R,9R*)-N-(2-Bromo-3-fluoropyridin-4-yl)-11,11-difluoro-9-(fluoromethyl)-9-hydroxy-3-methyl-3,4,8,9,10,11-hexahydro-1H-pyrido[4′,3′:3,4]pyrazolo[1,5-a]azepine-2(7H)-carboxamide] | 5 nM | –
C[C@@H]1Cc2nn3c(c2CN1C(=O)Nc1ccnc(Br)c1F)C(F)=CC(O)CC3 (single isomer, unassigned) [Example 123, (3R,9R*)-N-(2-Bromo-3-fluoropyridin-4-yl)-11-fluoro-9-hydroxy-3-methyl-3,4,8,9-tetrahydro-1H-pyrido[4′,3′:3,4]pyrazolo[1,5-a]azepine-2(7H)-carboxamide] | 18 nM | –
O=C(Nc1ccnc(Br)c1F)N1CCc2nn3c(c2C1)C(F)(F)CCC(O)(CF)C3 (single isomer, unassigned) [Example 38, (S*)-N-(2-Bromo-3-fluoropyridin-4-yl)-11,11-di fluoro-8-(fluoromethyl) -8-hydroxy-3,4,8,9,10,11-hexahydro-1H-pyrido[4′,3′:3,4]pyrazolo[1,5-a]azepine-2(7H)-carboxamide] | 84 nM | –
N#Cc1cc(NC(=O)N2CCc3nn4c(c3C2)C(F)(F)CC[C@@H](OCC(F)F)C4)ccc1F [Example 14, (R)-N-(3-Cyano-4-fluorophenyl)-8-(2,2-difluoroethoxy)-11,11-difluoro-3,4,8,9,10,11-hexahydro-1H-pyrido[4′,3′:3,4]pyrazolo[1,5-a]azepine-2(7H)-carboxamide] | 51 nM | –
O=C(Nc1ccc(F)c(C(F)(F)F)c1)N1CCc2nn3c(c2C1)C(F)(F)CC[C@@H](O)C3 [Example 9, (R)-11,11-Difluoro-N-(4-fluoro-3-(trifluoromethyl)phenyl)-8-hydroxy-3,4,8,9,10,11-hexahydro-1H-pyrido[4′,3′:3,4]pyrazolo[1,5-a]azepine-2(7H)-carboxamide] | 28 nM | –
C#C[C@]1(O)CCC(F)(F)c2c3c(nn2C1)C[C@@H](C)N(C(=O)Nc1ccnc(C(F)F)c1F)C3 (relative stereo) [Example 100, (3R,8S*)-N-(2-Difluoromethyl)-3-fluoropyridin-4-yl)-8-ethynyl-11,11-difluoro-8-hydroxy-3-methyl-3,4,8,9,10,11-hexahydro-1H-pyrido[4′,3′:3,4]pyrazolo[1,5-a]azepine-2(7H)-carboxamide] | 168 nM | –
C[C@@H]1Cc2nn3c(c2CN1C(=O)Nc1ccc(F)c(C#N)c1)C(F)(F)C(O)CCC3 (stereo partly drawn) [Example 143, (3R)-N-(3-Cyano-4-fluorophenyl)-11,11-difluoro-10-hydroxy-3-methyl-1,3,4,7,8,9,10,11-octahydro-2H-pyrido[4′,3′:3,4]pyrazolo[1,5-a]azepine-2-carboxamide] | 154 nM | –
C[C@@H]1Cc2nn3c(c2CN1C(=O)Nc1ccc(F)c(C#N)c1)C(F)(F)CC[C@H](O)C3 [Example 71, (3R,8 S)-N-(3-Cyano-4-fluorophenyl)-11,11-difluoro-8-hydroxy-3-methyl-3,4,8,9,10,11-hexahydro-1H-pyrido[4′,3′:3,4]pyrazolo[1,5-a]azepine-2(7H)-carboxamide] | 2 nM | –
C[C@@H]1Cc2nn3c(c2CN1C(=O)Nc1ccnc(C(F)F)c1F)C(F)(F)CC[C@H](O)C3 [Example 74, (3R,8S)-N-(2-(Difluoromethyl)-3-fluoropyridin-4-yl)-11,11-difluoro-8-hydroxy-3-methyl-3,4,8,9,10,11-hexahydro-1H-pyrido[4′,3′:3,4]pyrazolo[1,5-a]azepine-2(7H)-carboxamide] | 11 nM | –
C[C@@]1(O)CCC(F)(F)c2c3c(nn2C1)CCN(C(=O)Nc1ccc(F)c(C#N)c1)C3 (stereo in doubt) [Example 55, N-(3-Cyano-4-fluorophenyl)-11,11-difluoro-8-hydroxy-8-methyl-3,4,8,9,10,11-hexahydro-1H-pyrido[4′,3′:3,4]pyrazolo[1,5-a]azepine-2(7H)-carboxamide] | 29 nM | –
O=C(Nc1ccnc(Br)c1F)N1CCc2nn3c(c2C1)C(F)(F)CCC(F)(CO)C3 (stereo not shown) [Example 46, N-(2-Bromo-3-fluoropyridin-4-yl)-8,11,11-trifluoro-8-(hydroxymethyl)-3,4,8,9,10,11-hexahydro-1H-pyrido[4′,3′:3,4]pyrazolo[1,5-a]azepine-2(7H)-carboxamide] | 12 nM | –
C[C@@H]1Cc2nn3c(c2CN1C(=O)Nc1ccc(F)c(C#N)c1)C(F)(F)CC[C@@H](O)C3 [Example 67, (3R,8R)-N-(3-cyano-4-fluorophenyl)-11,11-difluoro-8-hydroxy-3-methyl-3,4,8,9,10,11-hexahydro-1H-pyrido[4′,3′:3,4]pyrazolo[1,5-a]azepine-2(7H)-carboxamide] | 4 nM | –
O=C(Nc1ccnc(Br)c1F)N1CCc2nn3c(c2C1)C(F)(F)CC(CO)CC3 (single isomer, unassigned) [Example 133, (S*)-N-(2-Bromo-3-fluoropyridin-4-yl)-11,11-difluoro-9-(hydroxymethyl)-3,4,8,9,10,11-hexahydro-1H-pyrido[4′,3′:3,4]pyrazolo[1,5-a]azepine-2(7H)-carboxamide] | 38 nM | –
C[C@@H]1Cc2nn3c(c2CN1C(=O)Nc1ccnc(Br)c1F)C(F)(F)CC[C@H](O)C3 [Example 72, (3R,8S)-N-(2-Bromo-3-fluoropyridin-4-yl)-11,11-difluoro-8-hydroxy-3-methyl-3,4,8,9,10,11-hexahydro-1H-pyrido[4′,3′:3,4]pyrazolo[1,5-a]azepine-2(7H)-carboxamide] | 9 nM | –
N#Cc1cc(NC(=O)N2CCc3nn4c(c3C2)C(F)(F)CCC(F)(CO)C4)ccc1F (stereo not shown) [Example 45, N-(3-Cyano-4-fluorophenyl)-8,11,11-trifluoro-8-(hydroxymethyl)-3,4,8,9,10,11-hexahydro-1H-pyrido[4′,3′:3,4]pyrazolo[1,5-a]azepine-2(7H)-carboxamide] | 5 nM | –
C=C1CCC(F)(F)c2c3c(nn2C1)CCN(C(=O)Nc1ccc(F)c(C#N)c1)C3 [Example 1, N-(3-Cyano-4-fluorophenyl)-11,11-difluoro-8-methylene-3,4,8,9,10,11-hexahydro-1H-pyrido[4′,3′:3,4]pyrazolo[1,5-a]azepine-2(7H)-carboxamide] | 44 nM | –
C[C@@H]1Cc2nn3c(c2CN1C(=O)Nc1ccc(F)c(C#N)c1)C(F)(F)CCC(CO)C3 (single isomer, unassigned) [Example 75, (3R,8S*)-N-(3-Cyano-4-fluorophenyl)-11,11-difluoro-8-(hydroxymethyl) -3-methyl-3,4,8,9,10,11-hexahydro-1H-pyrido[4′,3′:3,4]pyrazolo[1,5-a]azepine-2(7H)-carboxamide] | – | 5 nM
N#Cc1cc(NC(=O)N2CCc3nn4c(c3C2)C(F)(F)CC[C@H](OCC(F)F)C4)ccc1F [Example 13, (S)-N-(3-Cyano-4-fluorophenyl)-8-(2,2-difluoroethoxy)-11,11-difluoro-3,4,8,9,10,11-hexahydro-1H-pyrido[4′,3′:3,4]pyrazolo[1,5-a]azepine-2(7H)-carboxamide] | 42 nM | –
N#CCC1(O)CCC(F)(F)c2c3c(nn2C1)CCN(C(=O)Nc1ccc(F)c(C#N)c1)C3 (stereo not shown) [Example 40, N-(3-Cyano-4-fluorophenyl)-8-(cyanomethyl)-11,11-difluoro-8-hydroxy-3,4,8,9,10,11-hexahydro-1H-pyrido[4′,3′:3,4]pyrazolo[1,5-a]azepine-2(7H)-carboxamide] | 13 nM | –
